These results are taken from ChEMBL document CHEMBL1142601, “Biphenyl glycosides from the fruit of Pyracantha fortuneana” (J Nat Prod, 2006).

The target in the assay is T1, Tyrosinase (Homo sapiens, UniProt P14679).
T1 sequence (P14679 whole entry): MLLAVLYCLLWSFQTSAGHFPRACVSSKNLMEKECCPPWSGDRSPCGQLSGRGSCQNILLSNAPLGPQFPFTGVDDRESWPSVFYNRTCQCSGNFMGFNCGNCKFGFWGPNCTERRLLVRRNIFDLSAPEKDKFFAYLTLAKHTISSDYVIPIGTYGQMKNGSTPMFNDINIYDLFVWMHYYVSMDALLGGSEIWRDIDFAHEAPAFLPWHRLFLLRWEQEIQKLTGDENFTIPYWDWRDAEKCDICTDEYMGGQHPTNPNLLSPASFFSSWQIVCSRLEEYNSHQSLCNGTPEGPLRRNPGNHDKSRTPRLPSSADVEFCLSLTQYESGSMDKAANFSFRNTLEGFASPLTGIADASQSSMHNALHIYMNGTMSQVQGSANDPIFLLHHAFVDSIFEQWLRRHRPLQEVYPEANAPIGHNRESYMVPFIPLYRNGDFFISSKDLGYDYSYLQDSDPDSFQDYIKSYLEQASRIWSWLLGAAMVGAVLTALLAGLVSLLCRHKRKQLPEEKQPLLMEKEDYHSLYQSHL
Briefly: Inhibition of tyrosinase.
One may read the IC50 as the concentration needed to halve the response being measured. A low value points to inhibition by little substance. `COc1ccccc1-c1cc(OC)c(O)c(OC)c1O[C@@H]1O[C@H](CO)[C@@H](O)[C@H](O)[C@H]1O` [FORTUNEANOSIDE B] displayed an IC50 of 2210 µM.

`COc1cc(-c2ccccc2O[C@@H]2O[C@H](CO)[C@@H](O)[C@H](O)[C@H]2O)cc(OC)c1O` [FORTUNEANOSIDE C] came in with a half-inhibitory concentration (IC50) of 450 µM.

Compound `COc1cc(-c2cccc(O[C@@H]3O[C@H](CO)[C@@H](O)[C@H](O)[C@H]3O)c2O)cc(OC)c1O` [FORTUNEANOSIDE D] showed an IC50 of 70 µM.

Turning to `COc1cc(-c2ccc(O[C@@H]3O[C@H](CO)[C@@H](O)[C@H](O)[C@H]3O)c(O)c2)cc(OC)c1O` [FORTUNEANOSIDE E], the IC50 was 140 µM.
